Assay results taken from patent publication US20210269483A1, “PEPTIDE COMPOUNDS” (ULTUPHARMA AB, priority 2018, published 2021).
Converted amounts (≈) assume the structure as drawn. Read-outs that look alike come from different tables or passages of the source. Starred links: 1 amine or outer side, 2 acyl side, 3 side chain; linkers in the order of their positions; H or OH if unused. Positions of bridges follow the written chain, without caps; N, C: chain ends. Non-standard residues stand in square brackets, D forms with d. Residues, ends and D or L forms follow the SMILES beside them. X3 = CC(C)CCCCCCC[C@H](CC(=O)[*:1])O[*:2]; X4 = CCCCCCC=CC[C@H](CC(=O)[*:1])O[*:2]; Val(3-OH) = CC(C)(O)[C@H](N)C(=O)O; X1 = C/C=C(/N[*:1])C(=O)[*:2]; Dab = NCC[C@H](N)C(=O)O; Dap = NC[C@H](N)C(=O)O

What was measured:
[1] = tested on: A. baumannii; type: cell-based, Acinetobacter baumannii
From the text: (§1) 2015. M7-A10. Methods for dilution antimicrobial susceptibility tests for bacteria that grow aerobically, 10th ed. Approved standard. CLSI, Wayne, Pa.).
(§2) A) In the broth micro-dilution method, the test media were either AM3 Broth (BD Difco Ltd) mixed with phosphate buffered saline (PBS, Amresco LLC, Solon, USA) in 1:4 ratio (E. colt A. baumannii, Enterobacter cloacae, Klebsiella pneumonia and P. aeruginosa), AM3 Broth mixed with PBS in 1:1 ratio (S. aureus) or Malt Extract (ME; 15 g Malt Extract Dico Ltd. in 1000 mL deionized H2O; Aspergillus fumigatus). Prior to MIC-tests, the bacterial cell concentration/fungal spore concentration was adjusted to between 1 and 5×10^5 cells/spores per mL. […] Afterwards, suspensions of pathogen cells in the appropriate medium were dispensed to the wells of microtiter plates and the growth of pathogens were monitored after 16 to 20 h of incubation at 37° C. in the dark. Positive control comprised respective pathogen cells suspended in untreated sterile appropriate media without addition of compounds(s) and negative control comprised the medium only. The MIC was defined as the lowest concentration of each compound with no visible growth of pathogen. All MIC tests were performed in duplicate and/or triplicate and repeated at least twice.

[2] = tested on: E. cloacae; type: cell-based, Enterobacter cloacae
From the text: as §1, §2

[3] = tested on: E. coli; type: cell-based, Escherichia coli
From the text: as §1, §2

[4] = tested on: K. pneumoniae; type: cell-based, Klebsiella pneumonia
From the text: as §1, §2

[5] = tested on: P. aeruginosa; type: cell-based, Pseudomonas aeruginosa
From the text: as §1, §2

[6] = tested on: S. aureus; type: cell-based, Staphylococcus aureus
From the text: as §1, §2

[7] = tested on: HepG2
Description: IC50, haemolysis rate and frequency of resistance (FoR, Table 4) was determined using standard protocols by different CROs.

[8] = method A, only lower limit of concentration range shown ("16" means "16-32")

| MIC A. baumannii LMG1041T [1] | MIC E. cloacae LMG2783T [2] | MIC E. coli LMG15862 [3] | MIC K. pneumonia LMG20218 [4] | MIC P. aeruginosa LMG6395 [5] | MIC S. aureus LMG15975 [6] | IC50 (HepG2) [7] | MIC A. baumannii LMG1041T [1, 8] | MIC E. cloacae LMG2783T [2, 8] | MIC E. coli LMG15862 [3, 8] | MIC K. pneumonia LMG20218 [4, 8] | MIC P. aeruginosa LMG6395 [5, 8] | MIC S. aureus LMG15975 [6, 8] | IC50 (HepG2) ([7]; HepG2, determined by a CRO) | Compound |
| --- | --- | --- | --- | --- | --- | --- | --- | --- | --- | --- | --- | --- | --- | --- |
| 16 µg/mL (≈ 13.7 µM) | >32 µg/mL | 16 µg/mL (≈ 13.7 µM) | >32 µg/mL | >32 µg/mL | >32 µg/mL | 35 µg/mL (≈ 29.9 µM) | – | – | – | – | – | – | – | C/C=C1/NC(=O)[C@H](CCN)NC(=O)[C@H](CC(C)C)NC(=O)[C@H](CC(N)=O)NC(=O)C[C@@H](CCCCCCCC(C)C)OC(=O)[C@H](CC(=O)O)NC(=O)[C@H](C(C)C)NC(=O)[C@@H](Cc2ccccc2)NC(=O)[C@H](CN)NC(=O)[C@H]([C@@H](C)O)NC1=O [U824, cyclo-((R)-3-hydroxy-11-methyldodecanoyl-L-Asn-L-Leu-L-DABA-ABA-L-Thr-L-DAPA-D-Phe-L-Val-L-Asp)] (NL[Dab][X1]T[Dap][dF]VD; linker N-C via X3) |
| – | – | – | – | – | – | – | 1 µg/mL | 2 µg/mL | 1 µg/mL | 2 µg/mL | 2 µg/mL | 2 µg/mL | 9 µg/mL | Table 2 cyclic lipodepsipeptide: R C9H17; DAPA-Leu-DABA-ABA-Thr-DAPA-Phe-Val-Asp [U771] |
| – | – | – | – | – | – | – | 4 µg/mL | 8 µg/mL | 8 µg/mL | 8 µg/mL | 8 µg/mL | 16 µg/mL | 28 µg/mL | Table 2 cyclic lipodepsipeptide: R C9H17; DAPA-Leu-DABA-ABA-Thr-DAPA-Phe-OHVal-Asp [U757] |
| – | – | – | – | – | – | – | 2 µg/mL | 2 µg/mL | 8 µg/mL | 8 µg/mL | 4 µg/mL | 16 µg/mL | 34 µg/mL | Table 2 cyclic lipodepsipeptide: R C8H17; DAPA-Leu-DABA-ABA-Thr-DAPA-Phe-OHVal-Asp [U755b] |
| – | – | – | – | – | – | – | 8 µg/mL | 8 µg/mL | 8 µg/mL | 8 µg/mL | 8 µg/mL | 16 µg/mL | 39 µg/mL | Table 2 cyclic lipodepsipeptide: R C8H17; DAPA-Leu-DABA-ABA-Thr-DAPA-Phe-OHVal-Asp [U755a] |
| 4 µg/mL (≈ 3.45 µM) | 8 µg/mL (≈ 6.9 µM) | 2 µg/mL (≈ 1.73 µM) | 16 µg/mL (≈ 13.8 µM) | 8 µg/mL (≈ 6.9 µM) | 16 µg/mL (≈ 13.8 µM) | 8 µg/mL (≈ 6.9 µM) | – | – | – | – | – | – | – | C/C=C1/NC(=O)[C@H](CCN)NC(=O)[C@H](CC(C)C)NC(=O)[C@H](CN)NC(=O)C[C@@H](CCCCCCCC(C)C)OC(=O)[C@H](CC(=O)O)NC(=O)[C@H](C(C)(C)O)NC(=O)[C@@H](Cc2ccccc2)NC(=O)[C@H](CN)NC(=O)[C@H]([C@@H](C)O)NC1=O [U773, cyclo-((R)-3-hydroxy-11-methyldodecanoyl-L-DAPA-L-Leu-L-DABA-ABA-L-Thr-L-DAPA-D-Phe-L-OHVal-L-Asp)] ([Dap]L[Dab][X1]T[Dap][dF][Val(3-OH)]D; linker N-C via X3) |
| – | – | – | – | – | – | – | 4 µg/mL | 4 µg/mL | 2 µg/mL | 4 µg/mL | 8 µg/mL | 16 µg/mL | 29 µg/mL | Table 2 cyclic lipodepsipeptide: R C8H17; DAPA-Leu-DABA-ABA-Thr-DAPA-Phe-OHVal-Asp [U751] |
| – | – | – | – | – | – | – | 8 µg/mL | 8 µg/mL | 8 µg/mL | >32 µg/mL | >32 µg/mL | 16 µg/mL | 15 µg/mL | Table 2 cyclic lipodepsipeptide: R C10H21; Asn-Leu-DABA-ABA-Thr-DAPA-Phe-OHVal-Asp [U810] |
| 4 µg/mL (≈ 3.5 µM) | 16 µg/mL (≈ 14 µM) | 4 µg/mL (≈ 3.5 µM) | >32 µg/mL | 8 µg/mL (≈ 7 µM) | >32 µg/mL | 9 µg/mL (≈ 7.87 µM) | – | – | – | – | – | – | – | C/C=C1/NC(=O)[C@H](CCN)NC(=O)[C@H](CC(C)C)NC(=O)[C@H](CN)NC(=O)C[C@@H](CCCCCCCC(C)C)OC(=O)[C@H](CC(=O)O)NC(=O)[C@H](C(C)C)NC(=O)[C@@H](Cc2ccccc2)NC(=O)[C@H](CN)NC(=O)[C@H]([C@@H](C)O)NC1=O [U793, cyclo-((R)-3-hydroxy-11-methyldodecanoyl-L-DAPA-L-Leu-L-DABA-ABA-L-Thr-L-DAPA-D-Phe-L-Val-L-Asp)] ([Dap]L[Dab][X1]T[Dap][dF]VD; linker N-C via X3) |
| – | – | – | – | – | – | – | 16 µg/mL | 16 µg/mL | 16 µg/mL | 8 µg/mL | 16 µg/mL | >32 µg/mL | 72 µg/mL | Table 2 cyclic lipodepsipeptide: R C7H15; DAPA-Leu-DABA-ABA-Thr-DAPA-Phe-OHVal-Asp [U744] |
| 1 µg/mL (≈ 0.875 µM) | 2 µg/mL (≈ 1.75 µM) | 1 µg/mL (≈ 0.875 µM) | 2 µg/mL (≈ 1.75 µM) | 4 µg/mL (≈ 3.5 µM) | 4 µg/mL (≈ 3.5 µM) | – | – | – | – | – | – | – | – | C/C=C1/NC(=O)[C@H](CCN)NC(=O)[C@H](CC(C)C)NC(=O)[C@H](CN)NC(=O)C[C@@H](CC=CCCCCCC)OC(=O)[C@H](CC(=O)O)NC(=O)[C@H](C(C)(C)O)NC(=O)[C@@H](Cc2ccccc2)NC(=O)[C@H](CN)NC(=O)[C@H]([C@@H](C)O)NC1=O [U756, cyclo-((R)-3-hydroxydodec-5-enoyl-L-DAPA-L-Leu-L-DABA-ABA-L-Thr-L-DAPA-D-Phe-L-OHVal-L-Asp)] ([Dap]L[Dab][X1]T[Dap][dF][Val(3-OH)]D; linker N-C via X4) |
| – | – | – | – | – | – | – | 8 µg/mL | 8 µg/mL | 8 µg/mL | >32 µg/mL | 16 µg/mL | 16 µg/mL | 12 µg/mL | Table 2 cyclic lipodepsipeptide: R C10H21; DAPA-Leu-DABA-ABA-Thr-DAPA-Phe-Val-Asp [U800] |
| – | – | – | – | – | – | – | 2 µg/mL | 4 µg/mL | 4 µg/mL | 4 µg/mL | 8 µg/mL | 8 µg/mL | 20 µg/mL | Table 2 cyclic lipodepsipeptide: R C8H17; DAPA-Leu-DABA-ABA-Thr-DAPA-Phe-OHVal-Asp [U754] |
| – | – | – | – | – | – | – | 8 µg/mL | 4 µg/mL | 4 µg/mL | 16 µg/mL | 4 µg/mL | 16 µg/mL | 9 µg/mL | Table 2 cyclic lipodepsipeptide: R C9H17; DAPA-Leu-DABA-ABA-Thr-DAPA-Phe-Val-Asp [U775] |
| – | – | – | – | – | – | – | 8 µg/mL | 16 µg/mL | 8 µg/mL | >32 µg/mL | 16 µg/mL | 16 µg/mL | 23 µg/mL | Table 2 cyclic lipodepsipeptide: R C9H17; DAPA-Leu-DABA-ABA-Thr-Asn-Phe-Val-Asp [U826] |
